“And” between values parts separate entries of the source, which are not always exact repeats. Identical values can stand only once.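 Tested at 5 concentrations; 48 h exposure; 96-well plates; endpoints linearly interpolated, else capped at highest concentration. GI50 marks 50% less growth. TGI is the concentration that stops growth completely.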
Tests used:
Assay in all cases: NCI tumour cell line growth inhibition, 48 h
[1] = system: 786-0 renal
[2] = system: A498 renal
[3] = system: DMS 114 small cell lung
[4] = system: HCC-2998 colon
[5] = system: LOX IMVI melanoma
[6] = system: LXFL 529 NSCLC
[7] = system: RPMI-8226 leukemia
[8] = system: RXF 393 renal
[9] = system: SNB-19 CNS
[10] = system: UACC-62 melanoma

Row | SMILES | TGI [1] | TGI [2] [µM] | TGI [3] [µM] | TGI [4] | TGI [5] | TGI [6] [µM] | TGI [7] | TGI [8] | TGI [9] [µM] | TGI [10] | GI50 [1] | GI50 [2] [µM] | GI50 [4] [µM] | GI50 [5] | GI50 [8] | GI50 [9] [µM] | GI50 [10] [µM]
1 | Cc1cc2c(c(C(N)=O)c1C)-c1ccccc1C2=O | > 100 µM | > 100 | > 100 | > 100 µM | > 100 µM | > 100 | > 100 µM | > 100 µM | > 100 | > 100 µM | – | – | – | – | – | – | –
2 | CC(C(=O)c1ccc(Cl)cc1)/C(=N/NC(=O)NN)C(=O)Nc1cccc(C(F)(F)F)c1 (stereo unspecified) | > 100 µM | > 100 | > 100 | > 100 µM | > 100 µM | > 100 | > 100 µM | > 100 µM | > 100 | > 100 µM | – | – | – | – | – | – | –
3 | Cc1ccccc1C1=[N+]([O-])c2ccc(Cl)cc2C1=O | 32.9 µM | 71.4 | – | 29.4 µM | 20.2 µM | 24.3 | 9.37 µM | 34.9 µM | 64.4 | 24.9 µM | – | – | – | – | – | – | –
4 | CN(C)C(=S)SSC(=S)N(C)C | 33.4 µM and > 80.9 µM and 36.5 µM | > 100 | 17.4 | > 100 µM and 38 µM | 28.8 µM and 21.4 µM and > 55 µM | > 100 | 49.1 µM and 16.1 µM and 58.9 µM | 31 µM and > 62.6 µM and 32.6 µM | > 100 | 32.8 µM and > 41.6 µM and 28.2 µM | 18.2 µM and 35.2 µM and 17.3 µM | 15.1 | 38.3 | 14.9 µM and 5.4 µM and 22.7 µM | 16.5 µM and 38.6 µM and 16.6 µM | 25.4 | 15.8
5 | COC(=O)/C([Se]c1c(C)cc(C)cc1C)=C(/[Se]c1c(C)cc(C)cc1C)C(=O)OC | > 100 µM | > 100 | > 100 | > 100 µM | > 100 µM | > 100 | > 100 µM | > 100 µM | > 100 | > 100 µM | – | – | – | – | – | – | –
6 | CCC1CN2CCc3cc(OC)c(OC)cc3C2CC1CC1c2cc(OC)c(OC)cc2CCN1C(=O)C1CCCN1 (stereo unspecified) | 54.8 µM | 56.6 | – | 58.6 µM | 72.4 µM | 64.4 | > 100 µM | 73.8 µM | > 100 | – | – | – | – | – | – | – | –
7 | COc1cc(/C=C2\[C@H]3c4c(c(OC)c(C)c(OC)c4OC)CC(C(=O)N2Cc2ccccc2)N3C)c(OC)c(C)c1OC | 40.6 µM | 50.1 | – | 62.8 µM | 33.4 µM | 43.9 | 61.2 µM | > 100 µM | 73.8 | 30.4 µM | – | – | – | – | – | – | –
8 | CCOC(=O)NC(=O)c1cn(C2CCCCC2)c(=O)[nH]c1=O | > 100 µM | > 100 | – | > 100 µM | > 100 µM | > 100 | > 100 µM | – | > 100 | > 100 µM | – | – | – | – | – | – | –
9 | CC(C)CCC[C@@H](C)C1CCC2[C@@H]3CC=C4C[C@@H](C(=O)NCCN(C)C)CC[C@]4(C)C3CC[C@@]21C (stereo partly specified) | 43.2 µM | > 100 | 38.1 | 65.6 µM | > 100 µM | > 100 | 94 µM | > 100 µM | > 100 | > 100 µM | – | – | – | – | – | – | –
10 | COc1c(C)n(CCO)ccc1=O | > 100 µM | > 100 | > 100 | – | > 100 µM | > 100 | > 100 µM | > 100 µM | > 100 | > 100 µM | – | – | – | – | – | – | –
11 | Nc1ccccc1C(=O)/C=C/c1c(O)ccc2ccccc12 | > 100 µM | > 100 | > 100 | > 100 µM | 44.9 µM | > 100 | > 100 µM | > 100 µM | > 100 | > 100 µM | – | – | – | – | – | – | –
12 | Cc1[nH]c2ccccc2c1C1Cc2ccccc2N1C(=O)C#Cc1ccc([N+](=O)[O-])cc1 (stereo unspecified) | > 100 µM | > 100 | > 100 | > 100 µM | > 100 µM | > 100 | > 100 µM | > 100 µM | > 100 | > 100 µM | – | – | – | – | – | – | –
13 | Cn1c(=O)nc2n(-c3cc(C(F)(F)F)cc(C(F)(F)F)c3)c3ccccc3nc-2c1=O | > 100 µM | > 100 | > 100 | > 100 µM | > 100 µM | – | > 100 µM | > 100 µM | > 100 | – | – | – | – | – | – | – | –
14 | CC(=O)N1CCN(c2ccc(OCC3COC(Cn4ccnc4)(c4ccc(Cl)cc4Cl)O3)cc2)CC1 (stereo unspecified) | > 100 µM | > 100 | 43.7 | > 100 µM | 36 µM | > 100 | > 100 µM | 57.8 µM | – | 38 µM | – | – | – | – | – | – | –
15 | COC(=O)C(=O)C(C(C)=O)C(=O)NCc1ccc(OC)c(OC)c1 (stereo unspecified) | > 100 µM | > 100 | > 100 | > 100 µM | > 100 µM | > 100 | – | > 100 µM | > 100 | > 100 µM | – | – | – | – | – | – | –
16 | CCOP(=O)(OCC)C(C(=O)OC)C(=O)C(=O)Nc1ccc(Cl)cc1Cl (stereo unspecified) | > 100 µM | > 100 | > 100 | > 100 µM | > 100 µM | > 100 | > 100 µM | > 100 µM | > 100 | > 100 µM | – | – | – | – | – | – | –
17 | Cc1ccc(C)c(N2C/C(=N\NC(=O)CC#N)C(c3nc4ccccc4s3)C(=O)C2=O)c1 (stereo unspecified) | > 100 µM | > 100 | > 100 | > 100 µM | – | > 100 | – | > 100 µM | > 100 | > 100 µM | – | – | – | – | – | – | –
18 | O=[N+]([O-])c1cccc(C2=NOC(C3CCCCC3)C2)c1 (stereo unspecified) | > 100 µM | > 100 | > 100 | > 100 µM | – | > 100 | – | – | – | > 100 µM | – | – | – | – | – | – | –
19 | Cc1cccc(C2=C/C(=C(\SS/C(C(=O)c3ccc(OCC(=O)O)c(Cl)c3Cl)=C3\C=C(c4cccc(C)c4)SS3)C(=O)c3ccc(OCC(=O)O)c(Cl)c3Cl)SS2)c1 | 41.7 µM | 49.4 | 17.7 | > 100 µM | 18 µM | – | 41.4 µM | – | 43.7 | 38.5 µM | – | – | – | – | – | – | –
20 | Nc1nc(-c2ccc(Cl)c([N+](=O)[O-])c2)cs1 | > 100 µM | 92.1 | > 100 | > 100 µM | > 100 µM | > 100 | > 100 µM | 90.1 µM | > 100 | > 100 µM | – | – | – | – | – | – | –
21 | CN(C(=O)c1ccc([N+](=O)[O-])cc1)c1ccccc1 | > 100 µM | > 100 | > 10 | > 100 µM | > 100 µM | > 100 | > 100 µM | > 100 µM | > 100 | > 10 µM | – | – | – | – | – | – | –
22 | CC(C)(C)c1ccc2c(c1)S(=O)(=O)Nc1ccc(Cl)cc1NS(=O)(=O)c1cc(C(C)(C)C)ccc1OCCOCCOCCO2 | > 100 µM | > 100 | > 100 | > 100 µM | > 100 µM | – | – | 79.1 µM | > 100 | > 100 µM | – | – | – | – | – | – | –
